Reference: patent US10820591B2, “Substituted sulfonyl amides for controlling animal pests” (Bayer Aktiengesellschaft, priority 2016, dated 2020)

Each molecule was assayed on Meloidogyne incognita (assay: Meloidogyne incognita test (sand, lettuce, gall formation)). Settings: 20 ppm, after 14 days.
Format: in vivo
Summary of the method: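 Vessels held sand, diluted compound solution, M. incognita egg/larvae suspension and lettuce seeds, and the plants grew for 14 days. Efficacy in % came from root gall formation: 100% means no galls, 0% means galls equal to the untreated control.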
`COc1ccc(Cl)c(S(=O)(=O)NC(=O)c2cn(-c3cc(Cl)cc(Cl)c3)cn2)c1` [I-217] was tested, and the “nematicidal efficacy (formation of galls)” value was 90%.

Same assay, conditions: Meloidogyne incognita, 336 h, 20 ppm, after 14 days; read-out: nematicidal efficacy (formation of galls)
`Cc1ccc(-n2cnc(C(=O)NS(=O)(=O)c3ccccc3)c2)cc1` [I-209] was tested, and the pest or weed control at 20 ppm was 90%.
Work on `Cc1ccc(-n2cnc(C(=O)NS(=O)(=O)c3ccccc3Cl)c2)cc1` [I-210] yielded a pest or weed control at 20 ppm of 100%.
Work on `COc1ccc(-n2cnc(C(=O)NS(=O)(=O)c3ccccc3)c2)cc1` [I-211] yielded a pest or weed control at 20 ppm of 100%.
`Cc1ccc(-n2cnc(C(=O)NS(=O)(=O)c3c(Cl)cccc3Cl)c2)cc1` [I-212] was tested, and the pest or weed control at 20 ppm was 90%.
`COc1ccc(Cl)c(S(=O)(=O)NC(=O)c2cn(-c3ccc(C)cc3)cn2)c1` [I-213] was tested, and the pest or weed control at 20 ppm was 90%.
Work on `O=C(NS(=O)(=O)c1ccccc1Cl)c1cn(-c2ccc(F)cc2F)cn1` [I-215] yielded a pest or weed control at 20 ppm of 100%.
With `COc1ccc(Cl)c(S(=O)(=O)NC(=O)c2cn(-c3ccc(Cl)cc3Cl)cn2)c1` [I-216] the pest or weed control at 20 ppm was 90%.
`COc1ccc(Cl)c(S(=O)(=O)NC(=O)c2cn(-c3ccc(Cl)c(Cl)c3)cn2)c1` [I-218] showed a pest or weed control at 20 ppm of 70%.
`COc1ccc(Cl)c(S(=O)(=O)NC(=O)c2cn(-c3ccc(C(F)(F)F)cc3Cl)cn2)c1` [I-219] was tested, and the pest or weed control at 20 ppm was 90%.
`O=C(NS(=O)(=O)c1ccccc1)c1cn(-c2ccccc2F)cn1` [I-221] showed a pest or weed control at 20 ppm of 90%.
In the case of `O=C(NS(=O)(=O)c1c(F)cccc1F)c1cn(-c2cc(Cl)cc(Cl)c2)cn1` [I-222], the pest or weed control at 20 ppm is reported as 100%.
`O=C(NS(=O)(=O)c1c(F)cccc1F)c1cn(-c2ccc(C(F)(F)F)cc2Cl)cn1` [I-223] gave a pest or weed control at 20 ppm of 100%.
`O=C(NS(=O)(=O)c1c(F)cccc1F)c1cn(-c2ccccc2OC(F)(F)F)cn1` [I-224] showed a pest or weed control at 20 ppm of 90%.
Molecule `O=C(NS(=O)(=O)c1ccccc1Cl)c1cn(-c2ccccc2OC(F)(F)F)cn1` [I-225] has a pest or weed control at 20 ppm of 100%.
With `O=C(NS(=O)(=O)c1c(Cl)cccc1Cl)c1cn(-c2ccccc2OC(F)(F)F)cn1` [I-226] the pest or weed control at 20 ppm was 100%.
`COc1ccc(Cl)c(S(=O)(=O)NC(=O)c2cn(-c3ccccc3OC(F)(F)F)cn2)c1` [I-227] was tested, and the pest or weed control at 20 ppm was 100%.
With `COc1ccc(Cl)c(S(=O)(=O)NC(=O)c2cn(-c3ccccc3F)cn2)c1` [I-228] the pest or weed control at 20 ppm was 90%.
In the case of `O=C(NS(=O)(=O)c1ccccc1Cl)c1cn(-c2ccccc2F)cn1` [I-229], the pest or weed control at 20 ppm is reported as 100%.
For `O=C(NS(=O)(=O)c1cc(Cl)ccc1Cl)c1cn(-c2cc(Cl)cc(Cl)c2)cn1` [I-230], the pest or weed control at 20 ppm was 100%.
`COc1ccc(Cl)cc1S(=O)(=O)NC(=O)c1cn(-c2cc(Cl)ccc2Cl)cn1` [I-231] showed a pest or weed control at 20 ppm of 100%.
With `O=C(NS(=O)(=O)c1cc(Cl)ccc1Cl)c1cn(-c2ccccc2F)cn1` [I-232] the pest or weed control at 20 ppm was 100%.
For `O=C(NS(=O)(=O)c1cc(F)ccc1F)c1cn(-c2cc(Cl)ccc2Cl)cn1` [I-233], the pest or weed control at 20 ppm was 100%.
In the case of `O=C(NS(=O)(=O)c1cc(F)ccc1F)c1cn(-c2cc(Cl)cc(Cl)c2)cn1` [I-234], the pest or weed control at 20 ppm is reported as 70%.
Molecule `O=C(NS(=O)(=O)c1cc(C(F)(F)F)ccc1Br)c1cn(-c2cc(Cl)cc(Cl)c2)cn1` [I-235] has a pest or weed control at 20 ppm of 90%.
For `O=C(NS(=O)(=O)c1ccccc1)c1cn(-c2cc(F)cc(Cl)c2)cn1` [I-236], the pest or weed control at 20 ppm was 90%.
`O=C(NS(=O)(=O)c1ccccc1)c1cn(-c2cc(F)cc(F)c2)cn1` [I-237] showed a pest or weed control at 20 ppm of 90%.
`O=C(NS(=O)(=O)c1ccccc1Cl)c1cn(-c2cc(F)cc(C(F)(F)F)c2)cn1` [I-238] showed a pest or weed control at 20 ppm of 90%.
Molecule `O=C(NS(=O)(=O)c1c(Cl)cccc1Cl)c1cn(-c2cc(F)cc(C(F)(F)F)c2)cn1` [I-239] has a pest or weed control at 20 ppm of 100%.
Molecule `O=C(NS(=O)(=O)c1ccccc1Cl)c1cn(-c2cc(F)cc(Cl)c2)cn1` [I-240] has a pest or weed control at 20 ppm of 100%.
In the case of `O=C(NS(=O)(=O)c1c(Cl)cccc1Cl)c1cn(-c2cc(F)cc(Cl)c2)cn1` [I-241], the pest or weed control at 20 ppm is reported as 90%.
Work on `O=C(NS(=O)(=O)c1ccccc1Cl)c1cn(-c2cccc(Cl)c2Cl)cn1` [I-242] yielded a pest or weed control at 20 ppm of 100%.
`O=C(NS(=O)(=O)c1c(Cl)cccc1Cl)c1cn(-c2cccc(Cl)c2Cl)cn1` [I-243] showed a pest or weed control at 20 ppm of 100%.
`O=C(NS(=O)(=O)c1ccccc1Cl)c1cn(-c2c(Cl)cccc2Cl)cn1` [I-244] was tested, and the pest or weed control at 20 ppm was 100%.
`O=C(NS(=O)(=O)c1c(Cl)cccc1Cl)c1cn(-c2c(Cl)cccc2Cl)cn1` [I-245] showed a pest or weed control at 20 ppm of 100%.
Molecule `COc1ccc(Cl)c(S(=O)(=O)NC(=O)c2cn(-c3cccc(Cl)c3Cl)cn2)c1` [I-246] has a pest or weed control at 20 ppm of 100%.
For `COc1ccc(Cl)c(S(=O)(=O)NC(=O)c2cn(-c3cc(F)cc(Cl)c3)cn2)c1` [I-247], the pest or weed control at 20 ppm was 100%.
`O=C(NS(=O)(=O)c1c(F)cccc1F)c1cn(-c2cccc(Cl)c2Cl)cn1` [I-248] showed a pest or weed control at 20 ppm of 100%.
`O=C(NS(=O)(=O)c1c(F)cccc1F)c1cn(-c2cc(F)cc(C(F)(F)F)c2)cn1` [I-249] gave a pest or weed control at 20 ppm of 100%.
Molecule `COc1ccc(Cl)c(S(=O)(=O)NC(=O)c2cn(-c3c(Cl)cccc3Cl)cn2)c1` [I-251] has a pest or weed control at 20 ppm of 90%.
Work on `Cc1nc(C(=O)NS(=O)(=O)c2ccccc2Cl)cn1-c1ccccc1` [I-252] yielded a pest or weed control at 20 ppm of 100%.
With `Cc1nc(C(=O)NS(=O)(=O)c2ccccc2)cn1-c1ccc(Cl)cc1` [I-256] the pest or weed control at 20 ppm was 100%.
`Cc1nc(C(=O)NS(=O)(=O)c2ccccc2Cl)cn1-c1ccc(Cl)cc1` [I-257] was tested, and the pest or weed control at 20 ppm was 90%.
`Cc1nc(C(=O)NS(=O)(=O)c2c(Cl)cccc2Cl)cn1-c1ccc(Cl)cc1` [I-258] gave a pest or weed control at 20 ppm of 70%.
`COc1ccc(Cl)c(S(=O)(=O)NC(=O)c2cn(-c3ccc(Cl)cc3)c(C)n2)c1` [I-259] was tested, and the pest or weed control at 20 ppm was 100%.
For `COc1ccc(Cl)c(S(=O)(=O)NC(=O)c2cn(-c3ccccc3F)c(C)n2)c1` [I-260], the pest or weed control at 20 ppm was 70%.
Work on `Cc1nc(C(=O)NS(=O)(=O)c2cccc(Cl)c2)cn1-c1ccc(Cl)cc1` [I-261] yielded a pest or weed control at 20 ppm of 100%.
`Cc1nc(C(=O)NS(=O)(=O)c2ccc(Cl)cc2)cn1-c1ccc(Cl)cc1` [I-262] showed a pest or weed control at 20 ppm of 100%.
With `COc1ccc(Cl)c(S(=O)(=O)NC(=O)c2cn(-c3cccc(Cl)c3Cl)c(C)n2)c1` [I-263] the pest or weed control at 20 ppm was 90%.
For `Cc1nc(C(=O)NS(=O)(=O)c2c(Cl)cccc2Cl)cn1-c1ccccc1Cl` [I-265], the pest or weed control at 20 ppm was 90%.
`Cc1nc(C(=O)NS(=O)(=O)c2c(Cl)cccc2Cl)cn1-c1cccc(Cl)c1Cl` [I-267] showed a pest or weed control at 20 ppm of 100%.
Work on `Cc1nc(C(=O)NS(=O)(=O)c2ccccc2)cn1-c1ccccc1Cl` [I-270] yielded a pest or weed control at 20 ppm of 90%.
Work on `Cc1nc(C(=O)NS(=O)(=O)c2ccc(Cl)cc2)cn1-c1cccc(Cl)c1Cl` [I-271] yielded a pest or weed control at 20 ppm of 100%.
With `O=C(NS(=O)(=O)c1ccccc1)c1cn(-c2cc(Cl)cc(C(F)(F)F)c2)cn1` [I-272] the pest or weed control at 20 ppm was 90%.
In the case of `O=C(NS(=O)(=O)c1ccccc1)c1cn(-c2cc(Br)cc(Br)c2)cn1` [I-273], the pest or weed control at 20 ppm is reported as 90%.
With `Cc1nc(C(=O)NS(=O)(=O)c2c(Cl)cccc2Cl)cn1-c1cccc(C(F)(F)F)c1` [I-274] the pest or weed control at 20 ppm was 90%.
Molecule `COc1ccc(Cl)c(S(=O)(=O)NC(=O)c2cn(-c3cccc(C(F)(F)F)c3)c(C)n2)c1` [I-275] has a pest or weed control at 20 ppm of 100%.
`O=C(NS(=O)(=O)c1ccccc1)c1cn(-c2cc(Br)cc(C(F)(F)F)c2)cn1` [I-276] was tested, and the pest or weed control at 20 ppm was 70%.
Molecule `O=C(NS(=O)(=O)c1ccccc1Cl)c1cn(-c2cc(Br)cc(C(F)(F)F)c2)cn1` [I-277] has a pest or weed control at 20 ppm of 70%.
With `O=C(NS(=O)(=O)c1ccccc1Cl)c1cn(-c2cc(Cl)cc(C(F)(F)F)c2)cn1` [I-278] the pest or weed control at 20 ppm was 90%.
Molecule `COc1ccc(Cl)c(S(=O)(=O)NC(=O)c2cn(-c3cc(Br)cc(C(F)(F)F)c3)cn2)c1` [I-279] has a pest or weed control at 20 ppm of 90%.
`COc1ccc(Cl)c(S(=O)(=O)NC(=O)c2cn(-c3cc(Cl)cc(C(F)(F)F)c3)cn2)c1` [I-280] gave a pest or weed control at 20 ppm of 90%.
For `COc1ccc(Cl)c(S(=O)(=O)NC(=O)c2cn(-c3cc(C)cc(C(F)(F)F)c3)cn2)c1` [I-281], the pest or weed control at 20 ppm was 90%.
Work on `COc1ccc(Cl)c(S(=O)(=O)NC(=O)c2cn(-c3cc(Br)cc(Br)c3)cn2)c1` [I-282] yielded a pest or weed control at 20 ppm of 90%.
`Cc1cc(C)cc(-n2cnc(C(=O)NS(=O)(=O)c3ccccc3Cl)c2)c1` [I-283] was tested, and the pest or weed control at 20 ppm was 90%.
Molecule `O=C(NS(=O)(=O)c1ccccc1Cl)c1cn(-c2cc(C(F)(F)F)cc(C(F)(F)F)c2)cn1` [I-285] has a pest or weed control at 20 ppm of 90%.
`COc1ccc(Cl)c(S(=O)(=O)NC(=O)c2cn(-c3cc(F)cc(F)c3)cn2)c1` [I-287] was tested, and the pest or weed control at 20 ppm was 100%.
With `COc1ccc(Cl)c(S(=O)(=O)NC(=O)c2cn(-c3cc(C)cc(C)c3)cn2)c1` [I-288] the pest or weed control at 20 ppm was 100%.
`O=C(NS(=O)(=O)c1ccccc1Cl)c1cn(-c2cc(Br)cc(Br)c2)cn1` [I-289] was tested, and the pest or weed control at 20 ppm was 90%.
`Cc1cc(-n2cnc(C(=O)NS(=O)(=O)c3ccccc3Cl)c2)cc(C(F)(F)F)c1` [I-290] gave a pest or weed control at 20 ppm of 100%.
Work on `O=C(NS(=O)(=O)c1c(Cl)cccc1Cl)c1cn(-c2cc(C(F)(F)F)cc(C(F)(F)F)c2)cn1` [I-292] yielded a pest or weed control at 20 ppm of 90%.
With `O=C(NS(=O)(=O)c1c(Cl)cccc1Cl)c1cn(-c2cc(Br)cc(Br)c2)cn1` [I-293] the pest or weed control at 20 ppm was 100%.
`O=C(NS(=O)(=O)c1ccccc1C(F)(F)F)c1cn(-c2cc(C(F)(F)F)cc(C(F)(F)F)c2)cn1` [I-294] showed a pest or weed control at 20 ppm of 90%.
`O=C(NS(=O)(=O)c1ccccc1C(F)(F)F)c1cn(-c2cc(Cl)cc(C(F)(F)F)c2)cn1` [I-295] showed a pest or weed control at 20 ppm of 90%.
`O=C(NS(=O)(=O)c1ccccc1C(F)(F)F)c1cn(-c2cc(F)cc(C(F)(F)F)c2)cn1` [I-296] was tested, and the pest or weed control at 20 ppm was 90%.
With `O=C(NS(=O)(=O)c1c(Cl)cccc1Cl)c1cn(-c2cc(Br)cc(C(F)(F)F)c2)cn1` [I-297] the pest or weed control at 20 ppm was 90%.
`COc1ccc(Cl)c(S(=O)(=O)NC(=O)c2cn(-c3cc(C(F)(F)F)cc(C(F)(F)F)c3)cn2)c1` [I-298] was tested, and the pest or weed control at 20 ppm was 90%.
Work on `Cc1cc(C)cc(-n2cnc(C(=O)NS(=O)(=O)c3c(Cl)cccc3Cl)c2)c1` [I-299] yielded a pest or weed control at 20 ppm of 90%.
